Measurements as given in patent US10023590B2, “Substituted pyridine compounds having herbicidal activity” (BASF SE, priority 2014, dated 2018).
Where two headings read alike, the source gives them in different places.

Experiments:
Assay type in all cases: in vivo
Amaranthus retroflexus = experiment: Greenhouse post-emergence herbicidal activity, AMARE; conditions: for pest or weed control at 31 g/ha: 0.031 kg/ha; for pest or weed control at 125 g/ha: 0.125 kg/ha; for pest or weed control at 63 g/ha: 0.063 kg/ha; for pest or weed control at 1000 g/ha: 1 kg/ha
Outline: (§1)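 Damage was rated on a 0-100 scale, where 100 means full kill of aerial parts or no emergence, after a 2-4 week trial at species-dependent 10-25° C or 20-35° C. Compounds, suspended or emulsified in water, were sprayed once plants in humus-containing loamy sand had reached 3-15 cm.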

Ambrosia artemisiifolia = experiment: Greenhouse post-emergence herbicidal activity, AMBEL; conditions: scale 0 to 100
Excerpt: (§2) The culture containers used were plastic flowerpots containing loamy sand with approximately 3.0% of humus as the substrate. The seeds of the test plants were sown separately for each species.
(§3) For the post-emergence treatment, the test plants were first grown to a height of 3 to 15 cm, depending on the plant habit, and only then treated with the active ingredients which had been suspended or emulsified in water. For this purpose, the test plants were either sown directly and grown in the same containers, or they were first grown separately as seedlings and transplanted into the test containers a few days prior to treatment.
(§4) Depending on the species, the plants were kept at 10-25° C. or 20-35° C., respectively.
(§5) The test period extended over 2 to 4 weeks. During this time, the plants were tended, and their response to the individual treatments was evaluated.
(§6) Evaluation was carried out using a scale from 0 to 100. 100 means no emergence of the plants, or complete destruction of at least the aerial moieties, and 0 means no damage, or normal course of growth. A good herbicidal activity is given at values of at least 70 and a very good herbicidal activity is given at values of at least 85.

Chenopodium album = experiment: Greenhouse post-emergence herbicidal activity, CHEAL; conditions: scale 0 to 100; for pest or weed control at 31 g/ha: 0.031 kg/ha; for pest or weed control at 63 g/ha: 0.063 kg/ha; for pest or weed control at 125 g/ha: 0.125 kg/ha
Outline: as §1

Cirsium arvense = experiment: Greenhouse post-emergence herbicidal activity, CIRAR; conditions: for pest or weed control at 31 g/ha: 0.031 kg/ha
Excerpt: as §2, §3, §4, §5, §6

Ipomoea hederacea = experiment: Greenhouse post-emergence herbicidal activity, IPOHE; conditions: scale 0 to 100
Excerpt: as §2, §3, §4, §5, §6

Oryza sativa = experiment: Greenhouse post-emergence herbicidal activity on crop ORYSA (rice); conditions: ORYSA (rice, crop), scale 0 to 100
Outline: as §1

Veronica arvensis = experiment: Greenhouse post-emergence herbicidal activity, VERAR; conditions: scale 0 to 100
Excerpt: as §2, §3, §4, §5, §6

Zea mays = experiment: Greenhouse post-emergence herbicidal activity on crop ZEAMX (corn, maize); set-up: key: 0 = no damage/normal growth, 100 = no emergence or complete destruction; conditions: ZEAMX (corn, crop), scale 0 to 100
Outline: as §1

Abutilon theophrasti = experiment: Greenhouse post-emergence herbicidal activity, ABUTH; conditions: for pest or weed control at 1000 g/ha: 1 kg/ha
Excerpt: as §2, §3, §4, §5, §6

Echinocloa crus-galli = experiment: Greenhouse post-emergence herbicidal activity, ECHCG; conditions: Echinochloa crus-galli; for pest or weed control at 1000 g/ha: 1 kg/ha; for pest or weed control at 125 g/ha: 0.125 kg/ha
Outline: as §1

Sesbania herbacea = experiment: Greenhouse post-emergence herbicidal activity, SEBEX; conditions: 0.125 kg/ha, scale 0 to 100
Excerpt: as §2, §3, §4, §5, §6

Brachiaria decumbens = experiment: Greenhouse post-emergence herbicidal activity, BRADC; conditions: 0.125 kg/ha, scale 0 to 100
Excerpt: as §2, §3, §4, §5, §6

Capsella bursa-pastoris = experiment: Greenhouse post-emergence herbicidal activity, CAPBP; conditions: scale 0 to 100
Excerpt: as §2, §3, §4, §5, §6

Kochia scoparia = experiment: Greenhouse post-emergence herbicidal activity, KCHSC; conditions: scale 0 to 100
Excerpt: as §2, §3, §4, §5, §6

Polygonum persicaria = experiment: Greenhouse post-emergence herbicidal activity, POLPE; conditions: 0.031 kg/ha, scale 0 to 100
Excerpt: as §2, §3, §4, §5, §6

Stellaria media = experiment: Greenhouse post-emergence herbicidal activity, STEME; conditions: scale 0 to 100
Excerpt: as §2, §3, §4, §5, §6

Brachiaria plantaginea = experiment: Greenhouse post-emergence herbicidal activity, BRAPL; conditions: scale 0 to 100
Excerpt: as §2, §3, §4, §5, §6

Eriochloa villosa = experiment: Greenhouse post-emergence herbicidal activity, ERBVI; conditions: scale 0 to 100
Excerpt: as §2, §3, §4, §5, §6

Commelina benghalensis = experiment: Greenhouse post-emergence herbicidal activity, COMBE; conditions: 0.125 kg/ha, scale 0 to 100
Excerpt: as §2, §3, §4, §5, §6

Setaria viridis = experiment: Greenhouse post-emergence herbicidal activity, SETVI; conditions: 2 kg/ha, scale 0 to 100
Excerpt: as §2, §3, §4, §5, §6

Brachiaria deflexa = experiment: Greenhouse post-emergence herbicidal activity, BRADE; conditions: 0.031 kg/ha, scale 0 to 100
Excerpt: as §2, §3, §4, §5, §6

Panicum miliaceum = experiment: Greenhouse post-emergence herbicidal activity, PANMI; conditions: 0.031 kg/ha, scale 0 to 100
Excerpt: as §2, §3, §4, §5, §6

Polygonum aviculare = experiment: Greenhouse post-emergence herbicidal activity, POLAV; conditions: 0.25 kg/ha, scale 0 to 100
Excerpt: as §2, §3, §4, §5, §6

Setaria faberi = experiment: Greenhouse post-emergence herbicidal activity, SETFA; conditions: scale 0 to 100
Excerpt: as §2, §3, §4, §5, §6

[1] = CIRAR, 0.063 kg/ha, scale 0 to 100, read-out: Herbicidal activity
[2] = ABUTH, 2 kg/ha, scale 0 to 100, read-out: Herbicidal activity
[3] = AMARE, 2 kg/ha, scale 0 to 100, read-out: Herbicidal activity
[4] = ECHCG, 2 kg/ha, scale 0 to 100, read-out: Herbicidal activity

SMILES	pest or weed control at 31 g/ha (Amaranthus retroflexus; AMARE, scale 0 to 100)	pest or weed control at 125 g/ha (Amaranthus retroflexus; AMARE, scale 0 to 100)	pest or weed control at 31 g/ha (Chenopodium album)	pest or weed control at 63 g/ha (Chenopodium album)	pest or weed control at 125 g/ha (Chenopodium album)	pest or weed control at 63 g/ha (Cirsium arvense; [1])	Herbicidal activity (Oryza sativa; 0.031 kg/ha)	Herbicidal activity (Oryza sativa; 0.063 kg/ha)	Herbicidal activity (Oryza sativa; 0.125 kg/ha)	Herbicidal activity (Zea mays; 0.031 kg/ha)	Herbicidal activity (Zea mays; 0.063 kg/ha)	Herbicidal activity (Zea mays; 0.125 kg/ha)	pest or weed control at 63 g/ha (Amaranthus retroflexus; AMARE, scale 0 to 100)	pest or weed control at 31 g/ha (Cirsium arvense; CIRAR, scale 0 to 100)	Herbicidal activity (Capsella bursa-pastoris; 0.125 kg/ha)	pest or weed control at 2000 g/ha (Echinocloa crus-galli; [4])	further results
CN(c1cccc(C2=C(OC(=O)C(C)(C)C)c3ncccc3C(C)(C)S2(=O)=O)c1Cl)S(C)(=O)=O [I-16, [7-[2-chloro-3-[methyl(methylsulfonyl)amino]phenyl]-5,5-dimethyl-6,6-dioxo-thiopyrano[4,3-b]pyridin-8-yl] 2,2-dimethylpropanoate]	75%	90%	95%	98%	98%	85%	0	0	0	0	0	0	–	–	–	–	Herbicidal activity (Ambrosia artemisiifolia; 0.063 kg/ha): 100; Herbicidal activity (Ambrosia artemisiifolia; 0.125 kg/ha): 100; Herbicidal activity (Ambrosia artemisiifolia; 0.25 kg/ha): 100; pest or weed control at 250 g/ha (Chenopodium album; 0.25 kg/ha): 100%; Herbicidal activity (Ipomoea hederacea; 0.031 kg/ha): 70; Herbicidal activity (Oryza sativa; 0.25 kg/ha): 0; Herbicidal activity (Veronica arvensis; 0.25 kg/ha): 100
CN(C)S(=O)(=O)Oc1c(Cl)ccc(C2=C(O)c3ncccc3C(C)(C)S2(=O)=O)c1Cl [I-23]	–	–	85%	95%	98%	80%	0	0	0	0	0	15	70%	75%	–	–	pest or weed control at 1000 g/ha (Abutilon theophrasti; ABUTH, scale 0 to 100): 80%; pest or weed control at 1000 g/ha (Amaranthus retroflexus; AMARE, scale 0 to 100): 100%; pest or weed control at 1000 g/ha (Echinocloa crus-galli; ECHCG, scale 0 to 100): 95%; Herbicidal activity (Ipomoea hederacea; 0.125 kg/ha): 95; Herbicidal activity (Sesbania herbacea): 98
CN(c1c(Cl)ccc(C2=C(O)c3ncccc3C(C)(C)S2(=O)=O)c1Cl)S(C)(=O)=O [I-2, N-[2,6-dichloro-3-(8-hydroxy-5,5-dimethyl-6,6-dioxo-thiopyrano[4,3-b]pyridin-7-yl)phenyl]-N-methyl-methanesulfonamide]	–	–	–	–	–	–	–	–	–	–	5	–	–	–	100	–	pest or weed control at 2000 g/ha (Abutilon theophrasti; read-out: Herbicidal activity): 100%; pest or weed control at 2000 g/ha (Amaranthus retroflexus; read-out: Herbicidal activity): 100%; Herbicidal activity (Brachiaria decumbens): 100; pest or weed control at 63 g/ha (Cirsium arvense; read-out: Herbicidal activity): 98%; pest or weed control at 2000 g/ha (Echinocloa crus-galli; read-out: Herbicidal activity): 100%; Herbicidal activity (Kochia scoparia; 0.031 kg/ha): 95; Herbicidal activity (Kochia scoparia; 0.063 kg/ha): 98; Herbicidal activity (Kochia scoparia; 0.125 kg/ha): 100; Herbicidal activity (Polygonum persicaria): 98; Herbicidal activity (Stellaria media; 0.031 kg/ha): 100; Herbicidal activity (Stellaria media; 0.063 kg/ha): 100
Cc1c(C2=C(O)c3ncccc3CS2(=O)=O)ccc(Cl)c1N(C)S(C)(=O)=O [I-26, N-[6-chloro-3-(8-hydroxy-6,6-dioxo-5H-thiopyrano[4,3-b]pyridin-7-yl)-2-methyl-phenyl]-N-methyl-methanesulfonamide]	–	90%	–	–	98%	–	–	–	45	–	15	15	85%	–	–	100%	pest or weed control at 2000 g/ha (Abutilon theophrasti; [2]): 100%; pest or weed control at 2000 g/ha (Amaranthus retroflexus; [3]): 100%; Herbicidal activity (Brachiaria plantaginea; 0.031 kg/ha): 90; Herbicidal activity (Brachiaria plantaginea; 0.063 kg/ha): 90; Herbicidal activity (Eriochloa villosa; 0.031 kg/ha): 90; Herbicidal activity (Eriochloa villosa; 0.063 kg/ha): 95; Herbicidal activity (Eriochloa villosa; 0.125 kg/ha): 95; Herbicidal activity (Veronica arvensis; 0.031 kg/ha): 90
CC(C)N(c1c(Cl)ccc(C2=C(O)c3ncccc3C(C)(C)S2(=O)=O)c1Cl)S(C)(=O)=O [I-11, N-[2,6-dichloro-3-(8-hydroxy-5,5-dimethyl-6,6-dioxo-thiopyrano[4,3-b]pyridin-7-yl)phenyl]-N-isopropyl-methanesulfonamide]	–	–	98%	98%	100%	95%	–	–	20	0	–	–	–	90%	100	100%	pest or weed control at 2000 g/ha (Amaranthus retroflexus; [3]): 100%; Herbicidal activity (Capsella bursa-pastoris; 0.031 kg/ha): 98; Herbicidal activity (Capsella bursa-pastoris; 0.063 kg/ha): 100; Herbicidal activity (Commelina benghalensis): 100; Herbicidal activity (Setaria viridis): 100
CCN(c1c(Cl)ccc(C2=C(O)c3ncccc3C(C)(C)S2(=O)=O)c1Cl)S(C)(=O)=O [I-9, N-[2,6-dichloro-3-(8-hydroxy-5,5-dimethyl-6,6-dioxo-thiopyrano[4,3-b]pyridin-7-yl)phenyl]-N-ethyl-methanesulfonamide]	98%	98%	98%	–	–	–	–	–	–	5	10	50	98%	–	–	100%	pest or weed control at 2000 g/ha (Abutilon theophrasti; [2]): 98%; Herbicidal activity (Brachiaria deflexa): 100; pest or weed control at 125 g/ha (Cirsium arvense; CIRAR, 0.125 kg/ha, scale 0 to 100): 100%; pest or weed control at 125 g/ha (Echinocloa crus-galli; ECHCG, scale 0 to 100): 98%; Herbicidal activity (Eriochloa villosa; 0.063 kg/ha): 98; Herbicidal activity (Kochia scoparia; 0.063 kg/ha): 100; Herbicidal activity (Setaria viridis): 100
CN(c1c(Cl)ccc(C2=C(O)c3ncccc3CS2(=O)=O)c1Cl)S(=O)(=O)C1CC1 [I-27, N-[2,6-dichloro-3-(8-hydroxy-6,6-dioxo-5H-thiopyrano[4,3-b]pyridin-7-yl)phenyl]-N-methyl-cyclopropanesulfonamide]	–	–	100%	100%	100%	–	40	–	–	15	20	–	–	–	–	–	pest or weed control at 125 g/ha (Abutilon theophrasti; ABUTH, 0.125 kg/ha, scale 0 to 100): 80%; pest or weed control at 1000 g/ha (Abutilon theophrasti; ABUTH, scale 0 to 100): 95%; pest or weed control at 1000 g/ha (Amaranthus retroflexus; AMARE, scale 0 to 100): 100%; Herbicidal activity (Ambrosia artemisiifolia; 0.031 kg/ha): 70; Herbicidal activity (Ambrosia artemisiifolia; 0.063 kg/ha): 75; pest or weed control at 63 g/ha (Echinocloa crus-galli; ECHCG, 0.063 kg/ha, scale 0 to 100): 98%; pest or weed control at 125 g/ha (Echinocloa crus-galli; ECHCG, scale 0 to 100): 98%; pest or weed control at 1000 g/ha (Echinocloa crus-galli; ECHCG, scale 0 to 100): 98%; Herbicidal activity (Panicum miliaceum): 75
CC1(C)c2cccnc2C(O)=C(c2ccc(Cl)c(N(C3CC3)S(C)(=O)=O)c2Cl)S1(=O)=O [I-25, N-cyclopropyl-N-[2,6-dichloro-3-(8-hydroxy-5,5-dimethyl-6,6-dioxo-thiopyrano[4,3-b]pyridin-7-yl)phenyl]methanesulfonamide]	95%	98%	–	95%	–	–	–	35	–	5	–	20	98%	95%	95	–	pest or weed control at 250 g/ha (Amaranthus retroflexus; AMARE, 0.25 kg/ha, scale 0 to 100): 98%; Herbicidal activity (Ambrosia artemisiifolia; 0.25 kg/ha): 100; Herbicidal activity (Oryza sativa; 0.25 kg/ha): 35; Herbicidal activity (Polygonum aviculare): 100; Herbicidal activity (Setaria faberi; 0.031 kg/ha): 95; Herbicidal activity (Setaria faberi; 0.063 kg/ha): 95; Herbicidal activity (Setaria faberi; 0.125 kg/ha): 95
